Assay results: PubChem BioAssay AID1194 (EPA DSSTox, 2008)
Active and inactive are the calls of the source.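 Rule for the calls: active = chemicals rated mutagenic or weakly mutagenic in the Salmonella bacterial test by one literature review, or positive overall by another; inconclusive = no clear call, values can overlap the other calls; inactive = the rest.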

Tested on: Salmonella typhimurium Ames mutagenicity, literature compiled
Experiment: DSSTox (CPDBAS) Carcinogenic Potency Database Salmonella Mutagenicity
In short: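 Calls derive from published evaluations rather than new testing; overall "positive" in EPA Gene-Tox, or "mutagenic"/"weakly mutagenic" per Zeiger, counts as active.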

Compound	outcome
CC1=CC(=C(c2ccc(N)cc2)c2ccc(N)cc2)C=CC1=N	active; inactive
C=CCO	inactive
C[C@H](CCC(=O)O)[C@H]1CC[C@H]2[C@@H]3CC[C@@H]4C[C@H](O)CC[C@]4(C)[C@H]3CC[C@]12C	inactive
ClCc1ccccc1	active
N[C@@H](CCC(=O)O)C(=O)O	inactive; active
O=S(=O)(O)c1ccc2c(N=Nc3ccc(S(=O)(=O)O)c4ccccc34)c(O)c(S(=O)(=O)O)cc2c1	inactive
ClCc1cccnc1	active; inactive
C#C[C@]1(O)CC[C@H]2[C@@H]3CCc4cc(OC)ccc4[C@H]3CC[C@@]21C	inactive
O=C(O)C(Cl)Cl	active
COc1ccc(C(=O)/C(Br)=C\C(=O)O)cc1	active
CCOC(=O)N(CC)N=O	active; inactive
COc1c(Cl)c(Cl)c(Cl)c(Cl)c1Cl	active; inactive
Cc1ccc(N)c(C)c1	active
O=C(OOC(=O)c1ccccc1)c1ccccc1	inactive; active
COc1ccc([N+](=O)[O-])cc1N=Nc1c(O)c(C(=O)Nc2cccc([N+](=O)[O-])c2)cc2ccccc12	active; inactive
C/C=N/O	inactive
Cc1c2ccccc2c(C)c2c1ccc1ccccc12	active
CCC[CH2][Sn]([CH2]CCC)([O]C(C)=O)[O]C(C)=O	inactive
ClCCCl	active
O=[N+]([O-])c1ccc(NCCO)c(OCCO)c1	active
OC(O)C(Cl)(Cl)Cl	active
CC=O	inactive; active
CSCCC(N)C(=O)O (centres undefined)	inactive; active
CC(=O)C(N=Nc1ccc(-c2ccc(N=NC(C(C)=O)C(=O)Nc3ccccc3)c(Cl)c2)cc1Cl)C(=O)Nc1ccccc1 (centres undefined)	inactive
Cc1ccc2c(c1[N+](=O)[O-])C(=O)c1ccccc1C2=O	active; inactive

Compound	outcome
CC(=O)[O][Hg][c]1ccccc1	inactive; active
O=[N+]([O-])c1ccc2ncccc2c1	active
O=c1oc2c(O)c(O)cc3c(=O)oc4c(O)c(O)cc1c4c23	inactive
O=[N+]([O-])c1cc([As](=O)(O)O)ccc1O	inactive
CC1CN(/N=C/c2ccc([N+](=O)[O-])o2)C(=O)N1 (centres undefined)	active; inactive
O=c1c(O)c(-c2ccc(O)cc2)oc2cc(O)cc(O)c12	active
CC(=O)Nc1nnc(-c2ccc([N+](=O)[O-])o2)s1	active
C=C(C)[C@H]1CC=C(C)C(=O)C1	inactive; active
CCCCC1C(=O)N(c2ccccc2)N(c2ccccc2)C1=O	inactive
c1ccc(N=Nc2ccccc2)cc1	active
C=CCCl	active; inactive
S=P(N1CC1)(N1CC1)N1CC1	active; inactive
O=C(O)c1ccccc1	inactive
CC1CN(N=O)C(=O)NC1=O (centres undefined)	active
Nc1ccccc1C(=O)OC/C=C/c1ccccc1	inactive
BrC(Br)Br	active
CC[C@H]1OC(=O)[C@H](C)[C@@H](O[C@H]2C[C@@](C)(OC)[C@@H](O)[C@H](C)O2)[C@H](C)[C@@H](O[C@@H]2O[C@H](C)C[C@H](N(C)C)[C@H]2O)[C@](C)(O)C[C@@H](C)C(=O)[C@H](C)[C@@H](O)[C@]1(C)O	inactive
ClCC1CO1 (centres undefined)	active; inactive
NN	active; inactive
CC(=O)OCc1ccccc1	inactive; active
O=c1c(O)c(-c2ccc(O)c(O)c2)oc2cc(O)cc(O)c12	active; inactive
ClC1=C(Cl)[C@]2(Cl)[C@@H]3[C@H]4C=CC(C4)[C@@H]3C1(Cl)C2(Cl)Cl	inactive; active
CCOC(=O)CC(SP(=S)(OC)OC)C(=O)OCC (centres undefined)	inactive
CC(C)(C)c1cc(O)ccc1O	inactive
Nc1nc(N)c2nc(-c3ccccc3)c(N)nc2n1	inactive; active

Compound	outcome
C[N+](C)(C)CCO	inactive; active
BrCCBr	active
CS(=O)(=O)OCCCCOS(C)(=O)=O	active
COP(=S)(OC)Oc1ccc(SC)c(C)c1	inactive; active
CCCCCC	inactive
C=CC(=O)O	inactive
CCCC[N+](=O)[O-]	inactive; active
O=NN1CCN(N=O)CC1	active; inactive
COc1ccc(C)cc1N	active
N#Cc1c(Cl)c(Cl)c(Cl)c(C#N)c1Cl	inactive
Cc1ccc(N)cc1	active
Cc1cccc(N=Nc2ccc(N(C)C)cc2)c1	active; inactive
O=C1C(Cl)=C(Cl)C(=O)C(Cl)=C1Cl	active
CC1(C)COC1=O	active
Nc1ccccc1N	active
NC(=S)Nc1cccc2ccccc12	active; inactive
O=NO	active
Nc1ccc(N=Nc2ccccc2)c(N)n1	inactive
CC1CN(N=O)CC(C)N1C(=O)c1ccccc1 (centres undefined)	inactive
O=NN(CCO)CCO	active; inactive
Oc1ccccc1	inactive
CCn1c2ccccc2c2cc(N)ccc21	active
CC(C)(Oc1ccc(C2CCCc3ccccc32)cc1)C(=O)O (centres undefined)	inactive
CCOP(=S)(OCC)Oc1ccc([N+](=O)[O-])cc1	inactive
CCCN(CCC)S(=O)(=O)c1ccc(C(=O)O)cc1	inactive; active

Compound	outcome
CCOP(=S)(OCC)SC1OCCOC1SP(=S)(OCC)OCC (centres undefined)	active; inactive
CN(N=O)c1ccccn1	active; inactive
CC(=O)Nc1cccc2c1-c1ccccc1C2	active; inactive
CNC(=O)CSP(=S)(OC)OC	active
c1ccc2c(c1)Oc1ccccc1O2	inactive
NNCCO	active; inactive
Nc1ccc2nc3ccccn3c2n1	active
O=C1C=CC(=O)C=C1	inactive; active
COc1ccc(N)cc1	active; inactive
FC(F)(F)CCl	inactive
COc1cc(N=Nc2ccccc2)ccc1N	active
CCC1CO1 (centres undefined)	active
Cn1cc[nH]c1=S	inactive; active
CC(C)Oc1ccc(Nc2ccccc2)cc1	inactive; active
CN(C)c1ccc(C(=O)c2ccc(N(C)C)cc2)cc1	active; inactive
ClC1(Cl)C2(Cl)C3(Cl)C4(Cl)C(Cl)(Cl)C5(Cl)C3(Cl)C1(Cl)C5(Cl)C24Cl (centres undefined)	inactive
NC(=O)c1ccccc1C(N)=O	inactive
O=NN1CCC1	active; inactive
Nc1nc(N)nc(N)n1	inactive; active
CCOc1ccccc1C(N)=O	inactive; active
Cn1c(N)nc2ncc(-c3ccccc3)cc21	active
OCl	inactive; active
ClC(Cl)Cl	inactive
C#C[C@]1(O)CC[C@H]2[C@@H]3CCc4cc(O)ccc4[C@H]3CC[C@@]21C	inactive
